In patent US6525001B1, “Substituted pyrimidine and pyridine herbicides” (Mid-American Commercialization Corporation, priority 1997, dated 2003):

Tests used:
Assay in all cases: Test B pre-/postemergence
Assay type in all cases: in vivo
Set-up in all cases: key: 0 is no effect; 10 is complete control
[1] = tested on: purple nutsedge (Cyperus rotundus)
Procedure, shortened: (§1)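 Seeds were planted and sprayed preemergence, while plants at 2 to 18 cm (1- to 4-leaf stage) were sprayed postemergence at the same time, with test chemical in a non-phytotoxic solvent mixture containing surfactant. After twelve to sixteen days in a greenhouse, injury was rated visually against untreated controls on a 0–10 scale.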

[2] = tested on: cocklebur (Xanthium strumarium)
Procedure, shortened: as §1

[3] = tested on: wheat (Triticum aestivum)
Procedure, shortened: as §1

corn (Zea mays) = tested on: corn (Zea mays)
Procedure, shortened: as §1

rape (Brassica napus) = tested on: rape (Brassica napus)
Procedure, shortened: as §1

soybean (Glycine max) = tested on: soybean (Glycine max)
Procedure, shortened: as §1

[4] = tested on: crabgrass (Digitaria sanguinalis)
Procedure, shortened: as §1

[5] = tested on: giant foxtail (Setaria faberii)
Procedure, shortened: as §1

[6] = tested on: velvetleaf (Abutilon theophrasti)
Procedure, shortened: as §1

[7] = tested on: bedstraw (Galium aparine)
Procedure, shortened: as §1

wild oat (Avena fatua) = tested on: wild oat (Avena fatua)
Procedure, shortened: as §1

[8] = tested on: pigweed (Amaranthus retroflexus)
Procedure, shortened: as §1

[9] = tested on: momingglory (Ipomoea hederacea)
Procedure, shortened: as §1

[10] = tested on: sugar beet (Beta vulgaris)
Procedure, shortened: as §1

In the case of Cc1cnc(-c2ccc(Cl)cc2)nc1Cn1ccc(C(F)(F)F)n1 [Compound 6], the “Plant response rating, Nutsedge” value ([1]; Rate 62 g/ha, Postemergence) is reported as 2, the “Nutsedge plant response rating” value ([1]; Rate 62 g/ha, Preemergence) is reported as 0 and the “Nutsedge plant response rating” value ([1]; Rate 125 g/ha, Preemergence) is reported as 0. For the same compound, the “Plant response rating, Nutsedge” value ([1]; Rate 250 g/ha, Postemergence) was 2, the “Plant response rating, Nutsedge” value ([1]; Rate 250 g/ha, Preemergence) was 0 and the “Plant response rating, Nutsedge” value ([1]; Rate 500 g/ha, Postemergence) was 3. For the same compound, the “Plant response rating, Nutsedge” value ([1]; Rate 500 g/ha, Preemergence) was 0, the “Plant response rating, Cocklebur” value ([2]; Rate 62 g/ha, Postemergence) was 5 and the “Cocklebur plant response rating” value ([2]; Rate 62 g/ha, Preemergence) was 0. For the same compound, the “Plant response rating, Cocklebur” value ([2]; Rate 125 g/ha, Postemergence) was 6, the “Cocklebur plant response rating” value ([2]; Rate 125 g/ha, Preemergence) was 0 and the “Plant response rating, Cocklebur” value ([2]; Rate 250 g/ha, Postemergence) was 7. For the same compound, the “Plant response rating, Cocklebur” value ([2]; Rate 250 g/ha, Preemergence) was 0, the “Plant response rating, Cocklebur” value ([2]; Rate 500 g/ha, Postemergence) was 7 and the “Plant response rating, Cocklebur” value ([2]; Rate 500 g/ha, Preemergence) was 0. For the same compound, the “Plant response rating, Wheat” value ([3]; Rate 62 g/ha, Postemergence) was 1, the “Wheat plant response rating” value ([3]; Rate 62 g/ha, Preemergence) was 0 and the “Plant response rating, Wheat” value ([3]; Rate 125 g/ha, Postemergence) was 2. The “Wheat plant response rating” value ([3]; Rate 125 g/ha, Preemergence) was 0, the “Plant response rating, Wheat” value ([3]; Rate 250 g/ha, Postemergence) was 2 and the “Plant response rating, Wheat” value ([3]; Rate 250 g/ha, Preemergence) was 0. The “Plant response rating, Wheat” value ([3]; Rate 500 g/ha, Postemergence) was 3, the “Plant response rating, Wheat” value ([3]; Rate 500 g/ha, Preemergence) was 0 and the “Plant response rating, Corn” value (corn (Zea mays); Rate 62 g/ha, Postemergence) was 3. The “Corn plant response rating” value (corn (Zea mays); Rate 62 g/ha, Preemergence) was 0, the “Plant response rating, Corn” value (corn (Zea mays); Rate 125 g/ha, Postemergence) was 3 and the “Corn plant response rating” value (corn (Zea mays); Rate 125 g/ha, Preemergence) was 0. For the same compound, the “Plant response rating, Corn” value (corn (Zea mays); Rate 250 g/ha, Postemergence) was 3, the “Plant response rating, Corn” value (corn (Zea mays); Rate 250 g/ha, Preemergence) was 0 and the “Plant response rating, Corn” value (corn (Zea mays); Rate 500 g/ha, Postemergence) was 3. The “Plant response rating, Corn” value (corn (Zea mays); Rate 500 g/ha, Preemergence) was 0, the “Plant response rating, Rape” value (rape (Brassica napus); Rate 62 g/ha, Postemergence) was 8 and the “Rape plant response rating” value (rape (Brassica napus); Rate 62 g/ha, Preemergence) was 0. For the same compound, the “Plant response rating, Rape” value (rape (Brassica napus); Rate 125 g/ha, Postemergence) was 8, the “Rape plant response rating” value (rape (Brassica napus); Rate 125 g/ha, Preemergence) was 2 and the “Plant response rating, Rape” value (rape (Brassica napus); Rate 250 g/ha, Postemergence) was 8. For the same compound, the “Plant response rating, Rape” value (rape (Brassica napus); Rate 250 g/ha, Preemergence) was 4, the “Plant response rating, Rape” value (rape (Brassica napus); Rate 500 g/ha, Postemergence) was 8 and the “Plant response rating, Rape” value (rape (Brassica napus); Rate 500 g/ha, Preemergence) was 7. For the same compound, the “Plant response rating, Soybean” value (soybean (Glycine max); Rate 62 g/ha, Postemergence) was 6, the “Soybean plant response rating” value (soybean (Glycine max); Rate 62 g/ha, Preemergence) was 0 and the “Plant response rating, Soybean” value (soybean (Glycine max); Rate 125 g/ha, Postemergence) was 6. For the same compound, the “Soybean plant response rating” value (soybean (Glycine max); Rate 125 g/ha, Preemergence) was 0, the “Plant response rating, Soybean” value (soybean (Glycine max); Rate 250 g/ha, Postemergence) was 6 and the “Plant response rating, Soybean” value (soybean (Glycine max); Rate 250 g/ha, Preemergence) was 0. The “Plant response rating, Soybean” value (soybean (Glycine max); Rate 500 g/ha, Postemergence) was 6, the “Plant response rating, Soybean” value (soybean (Glycine max); Rate 500 g/ha, Preemergence) was 0 and the “Plant response rating, Crabgrass” value ([4]; Rate 62 g/ha, Postemergence) was 5. The “Crabgrass plant response rating” value ([4]; Rate 62 g/ha, Preemergence) was 1, the “Plant response rating, Crabgrass” value ([4]; Rate 125 g/ha, Postemergence) was 8 and the “Crabgrass plant response rating” value ([4]; Rate 125 g/ha, Preemergence) was 2. The “Plant response rating, Crabgrass” value ([4]; Rate 250 g/ha, Postemergence) was 8, the “Plant response rating, Crabgrass” value ([4]; Rate 250 g/ha, Preemergence) was 8 and the “Plant response rating, Crabgrass” value ([4]; Rate 500 g/ha, Postemergence) was 9. The “Plant response rating, Crabgrass” value ([4]; Rate 500 g/ha, Preemergence) was 10, the “Giant foxtail plant response rating” value ([5]; Rate 62 g/ha, Preemergence) was 2 and the “Plant response rating, Giant foxtail” value ([5]; Rate 125 g/ha, Postemergence) was 4. For the same compound, the “Giant foxtail plant response rating” value ([5]; Rate 125 g/ha, Preemergence) was 6, the “Plant response rating, Giant foxtail” value ([5]; Rate 250 g/ha, Postemergence) was 5 and the “Plant response rating, Giant foxtail” value ([5]; Rate 250 g/ha, Preemergence) was 9. For the same compound, the “Plant response rating, Giant foxtail” value ([5]; Rate 500 g/ha, Postemergence) was 6, the “Plant response rating, Giant foxtail” value ([5]; Rate 500 g/ha, Preemergence) was 10 and the “Plant response rating, Velvetleaf” value ([6]; Rate 62 g/ha, Postemergence) was 7. The “Velvetleaf plant response rating” value ([6]; Rate 62 g/ha, Preemergence) was 1, the “Plant response rating, Velvetleaf” value ([6]; Rate 125 g/ha, Postemergence) was 7 and the “Velvetleaf plant response rating” value ([6]; Rate 125 g/ha, Preemergence) was 2. For the same compound, the “Plant response rating, Velvetleaf” value ([6]; Rate 250 g/ha, Postemergence) was 8, the “Plant response rating, Velvetleaf” value ([6]; Rate 250 g/ha, Preemergence) was 2 and the “Plant response rating, Velvetleaf” value ([6]; Rate 500 g/ha, Postemergence) was 8. For the same compound, the “Plant response rating, Velvetleaf” value ([6]; Rate 500 g/ha, Preemergence) was 3, the “Plant response rating, Bedstraw” value ([7]; Rate 62 g/ha, Postemergence) was 5 and the “Bedstraw plant response rating” value ([7]; Rate 62 g/ha, Preemergence) was 0. For the same compound, the “Plant response rating, Bedstraw” value ([7]; Rate 125 g/ha, Postemergence) was 7, the “Bedstraw plant response rating” value ([7]; Rate 125 g/ha, Preemergence) was 0 and the “Plant response rating, Bedstraw” value ([7]; Rate 250 g/ha, Postemergence) was 7. For the same compound, the “Plant response rating, Bedstraw” value ([7]; Rate 250 g/ha, Preemergence) was 0, the “Plant response rating, Bedstraw” value ([7]; Rate 500 g/ha, Postemergence) was 8 and the “Plant response rating, Bedstraw” value ([7]; Rate 500 g/ha, Preemergence) was 5. The “Plant response rating, Wild oats” value (wild oat (Avena fatua); Rate 62 g/ha, Postemergence) was 0, the “Wild oats plant response rating” value (wild oat (Avena fatua); Rate 62 g/ha, Preemergence) was 0 and the “Plant response rating, Wild oats” value (wild oat (Avena fatua); Rate 125 g/ha, Postemergence) was 3. The “Wild oats plant response rating” value (wild oat (Avena fatua); Rate 125 g/ha, Preemergence) was 0, the “Plant response rating, Wild oats” value (wild oat (Avena fatua); Rate 250 g/ha, Postemergence) was 3 and the “Plant response rating, Wild oats” value (wild oat (Avena fatua); Rate 250 g/ha, Preemergence) was 2. The “Plant response rating, Wild oats” value (wild oat (Avena fatua); Rate 500 g/ha, Postemergence) was 3, the “Plant response rating, Wild oats” value (wild oat (Avena fatua); Rate 500 g/ha, Preemergence) was 3 and the “Plant response rating, Redroot pigweed” value ([8]; Rate 62 g/ha, Postemergence) was 5. The “Redroot pigweed plant response rating” value ([8]; Rate 62 g/ha, Preemergence) was 0, the “Plant response rating, Redroot pigweed” value ([8]; Rate 125 g/ha, Postemergence) was 7 and the “Redroot pigweed plant response rating” value ([8]; Rate 125 g/ha, Preemergence) was 3. The “Plant response rating, Redroot pigweed” value ([8]; Rate 250 g/ha, Postemergence) was 9, the “Plant response rating, Redroot pigweed” value ([8]; Rate 250 g/ha, Preemergence) was 6 and the “Plant response rating, Redroot pigweed” value ([8]; Rate 500 g/ha, Postemergence) was 9. The “Plant response rating, Redroot pigweed” value ([8]; Rate 500 g/ha, Preemergence) was 6, the “Plant response rating, Morningglory” value ([9]; Rate 62 g/ha, Postemergence) was 3 and the “Morningglory plant response rating” value ([9]; Rate 62 g/ha, Preemergence) was 1. The “Plant response rating, Morningglory” value ([9]; Rate 125 g/ha, Postemergence) was 8, the “Morningglory plant response rating” value ([9]; Rate 125 g/ha, Preemergence) was 1 and the “Plant response rating, Morningglory” value ([9]; Rate 250 g/ha, Postemergence) was 8. The “Plant response rating, Morningglory” value ([9]; Rate 250 g/ha, Preemergence) was 2, the “Plant response rating, Morningglory” value ([9]; Rate 500 g/ha, Postemergence) was 8 and the “Plant response rating, Morningglory” value ([9]; Rate 500 g/ha, Preemergence) was 2. For the same compound, the “Plant response rating, Sugarbeets” value ([10]; Rate 62 g/ha, Postemergence) was 7, the “Sugarbeets plant response rating” value ([10]; Rate 62 g/ha, Preemergence) was 0 and the “Plant response rating, Sugarbeets” value ([10]; Rate 125 g/ha, Postemergence) was 8. For the same compound, the “Sugarbeets plant response rating” value ([10]; Rate 125 g/ha, Preemergence) was 3, the “Plant response rating, Sugarbeets” value ([10]; Rate 250 g/ha, Postemergence) was 8 and the “Plant response rating, Sugarbeets” value ([10]; Rate 250 g/ha, Preemergence) was 9. The “Plant response rating, Sugarbeets” value ([10]; Rate 500 g/ha, Postemergence) was 9 and the “Plant response rating, Sugarbeets” value ([10]; Rate 500 g/ha, Preemergence) was 10.
